In PubChem BioAssay AID1259407 (Chemical Carcinogenesis Research Information System (CCRIS), 2018):
Activity calls are given as the source filed them. How the calls were made is not given here.

System: CCRIS mutagenicity, Ames/micronucleus/aberration tests
Test: CCRIS mutagenicity studies
[1] = Test System: AMES SALMONELLA TYPHIMURIUM, Strain/Indicator: TA98, Metabolic Activation: NONE, Method: STANDARD PLATE
[2] = Test System: AMES SALMONELLA TYPHIMURIUM, Strain/Indicator: TA98, Metabolic Activation: RAT, LIVER, S-9, AROCLOR 1254, Method: STANDARD PLATE
[3] = Test System: AMES SALMONELLA TYPHIMURIUM, Strain/Indicator: TA100, Metabolic Activation: NONE, Method: STANDARD PLATE
[4] = Test System: AMES SALMONELLA TYPHIMURIUM, Strain/Indicator: TA100, Metabolic Activation: RAT, LIVER, S-9, AROCLOR 1254, Method: STANDARD PLATE
[5] = Test System: AMES SALMONELLA TYPHIMURIUM, Strain/Indicator: TA1535, Metabolic Activation: NONE, Method: STANDARD PLATE
[6] = Test System: AMES SALMONELLA TYPHIMURIUM, Strain/Indicator: TA1535, Metabolic Activation: RAT, LIVER, S-9, AROCLOR 1254, Method: STANDARD PLATE
[7] = Test System: AMES SALMONELLA TYPHIMURIUM, Strain/Indicator: TA1537, Metabolic Activation: NONE, Method: STANDARD PLATE
[8] = Test System: AMES SALMONELLA TYPHIMURIUM, Strain/Indicator: TA1537, Metabolic Activation: RAT, LIVER, S-9, AROCLOR 1254, Method: STANDARD PLATE
[9] = Test System: AMES SALMONELLA TYPHIMURIUM, Strain/Indicator: TA1538, Metabolic Activation: NONE, Method: STANDARD PLATE
[10] = Test System: AMES SALMONELLA TYPHIMURIUM, Strain/Indicator: TA1538, Metabolic Activation: RAT, LIVER, S-9, AROCLOR 1254, Method: STANDARD PLATE
[11] = Test System: AMES SALMONELLA TYPHIMURIUM, Strain/Indicator: TA100, Metabolic Activation: NONE, Method: PREINCUBATION
[12] = Test System: AMES SALMONELLA TYPHIMURIUM, Strain/Indicator: TA100, Metabolic Activation: RAT, LIVER, S-9, AROCLOR 1254, Method: PREINCUBATION

Question: How did the mutagenic call (Test System: AMES SALMONELLA TYPHIMURIUM, Strain/Indicator: TA98, Metabolic Activation: HAMSTER, LIVER, S-9, AROCLOR 1254, Method: STANDARD PLATE) turn out when `Cc1cc(S(=O)(=O)O)ccc1N` was run?
Answer: inactive; negative

Question: What about the mutagenic call [1] of the same compound?
Answer: inactive; negative

Question: What about the mutagenic call [2] of the same compound?
Answer: inactive; negative

Question: And the mutagenic call (Test System: AMES SALMONELLA TYPHIMURIUM, Strain/Indicator: TA100, Metabolic Activation: HAMSTER, LIVER, S-9, AROCLOR 1254, Method: STANDARD PLATE)?
Answer: inactive; negative

Question: What about the mutagenic call [3] of the same compound?
Answer: inactive; negative

Question: What about the mutagenic call [4] of the same compound?
Answer: inactive; negative

Question: What about the mutagenic call (Test System: AMES SALMONELLA TYPHIMURIUM, Strain/Indicator: TA1535, Metabolic Activation: HAMSTER, LIVER, S-9, AROCLOR 1254, Method: STANDARD PLATE) of the same compound?
Answer: inactive; negative

Question: What about the mutagenic call [5] of the same compound?
Answer: inactive; negative

Question: And the mutagenic call [6]?
Answer: inactive; negative

Question: What about the mutagenic call (Test System: AMES SALMONELLA TYPHIMURIUM, Strain/Indicator: TA1537, Metabolic Activation: HAMSTER, LIVER, S-9, AROCLOR 1254, Method: STANDARD PLATE) of the same compound?
Answer: inactive; negative

Question: What about the mutagenic call [7] of the same compound?
Answer: inactive; negative

Question: And the mutagenic call [8]?
Answer: inactive; negative

Question: What about the mutagenic call (Test System: AMES SALMONELLA TYPHIMURIUM, Strain/Indicator: TA1538, Metabolic Activation: HAMSTER, LIVER, S-9, AROCLOR 1254, Method: STANDARD PLATE) of the same compound?
Answer: inactive; negative

Question: What about the mutagenic call [9] of the same compound?
Answer: inactive; negative

Question: And the mutagenic call [10]?
Answer: inactive; negative

Question: And the mutagenic call (Test System: MOUSE LYMPHOMA, Strain/Indicator: L5178Y (TK+/TK-), Metabolic Activation: NONE, Method: SUSPENSION/PLATE)?
Answer: inactive; negative. reevaluation of results: negative

Question: What about the mutagenic call (Test System: MOUSE LYMPHOMA, Strain/Indicator: L5178Y (TK+/TK-), Metabolic Activation: RAT, LIVER, S-9, AROCLOR 1254, Method: SUSPENSION/PLATE) of the same compound?
Answer: active; positive. reevaluation of results: positive

Question: `O=C(/C=C/c1ccc(O)c(O)c1)O[C@H](Cc1ccc(O)c(O)c1)C(=O)O` was tested. Which mutagenic call (End Point: In vivo micronucleus, Species: Mouse, Strain/Sex: Swiss/Male, Route: Oral) did it give?
Answer: inactive; negative

Question: How did the mutagenic call [11] turn out when `CC/C=C/C=O` was run?
Answer: inactive; negative

Question: What about the mutagenic call (Test System: AMES SALMONELLA TYPHIMURIUM, Strain/Indicator: TA100, Metabolic Activation: NONE, Method: PREINCUBATION (THREEFOLD CELL DENSITY)) of the same compound?
Answer: active; positive

Question: And the mutagenic call [12]?
Answer: active; positive

Question: What about the mutagenic call (Test System: AMES SALMONELLA TYPHIMURIUM, Strain/Indicator: TA100, Metabolic Activation: RAT, LIVER, S-9, AROCLOR 1254, Method: PREINCUBATION (THREEFOLD CELL DENSITY)) of the same compound?
Answer: active; positive

Question: What about the mutagenic call (Test System: CHINESE HAMSTER V-79, Strain/Indicator: V-79/6-THIOGUANINE, Metabolic Activation: NONE, Method: STANDARD PLATE) of the same compound?
Answer: active; positive

Question: What about the mutagenic call (Test System: CHINESE HAMSTER V-79, Strain/Indicator: V-79/OUABAIN, Metabolic Activation: NONE, Method: STANDARD PLATE) of the same compound?
Answer: inactive; negative

Question: How did the mutagenic call [1] turn out when `CCOP(=O)(Oc1ccc([N+](=O)[O-])cc1)c1ccccc1` (stereo unspecified) was run?
Answer: active; positive

Question: What about the mutagenic call (Test System: AMES SALMONELLA TYPHIMURIUM, Strain/Indicator: TA98, Metabolic Activation: RAT, LIVER, S-9, Method: STANDARD PLATE) of the same compound?
Answer: inactive; negative

Question: What about the mutagenic call [3] of the same compound?
Answer: inactive; negative

Question: What about the mutagenic call (Test System: AMES SALMONELLA TYPHIMURIUM, Strain/Indicator: TA100, Metabolic Activation: RAT, LIVER, S-9, Method: STANDARD PLATE) of the same compound?
Answer: inactive; negative

Question: Which mutagenic call (End Point: IN VITRO MICRONUCLEUS, Test System: HAMSTER V79 CELLS, Metabolic Activation: NONE) does the source give for `[Cl][Pb][Cl]` here?
Answer: active; positive (aneugenic above 1.1 um)

Question: What about the mutagenic call (Test System: CHINESE HAMSTER OVARY, Strain/Indicator: CHO-AS52/6-THIOGUANINE, Metabolic Activation: NONE) of the same compound?
Answer: active; positive

Question: What about the mutagenic call (Test System: CHINESE HAMSTER V-79, Strain/Indicator: SP5 V-79 (HPRT)/6-THIOGUANINE, Metabolic Activation: NONE, Method: STANDARD PLATE) of the same compound?
Answer: inactive; negative

Question: What about the mutagenic call (Test System: CHINESE HAMSTER V-79, Strain/Indicator: SPD8 V-79 (HPRT)/6-THIOGUANINE, Metabolic Activation: NONE, Method: STANDARD PLATE) of the same compound?
Answer: inactive; negative

Question: `CCC[C@]1(O)CC[C@H]2[C@@H]3CC[C@H]4CC(=O)C[C@H](C)[C@]4(C)[C@H]3CC[C@@]21C` was tested. Which mutagenic call (End Point: IN VITRO CHROMOSOMAL ABERRATIONS, Test System: HUMAN PERIPHERAL LYMPHOCYTES, Metabolic Activation: NONE) did it give?
Answer: inactive; negative

Question: And the mutagenic call (End Point: IN VITRO CHROMOSOMAL ABERRATIONS, Test System: HUMAN PERIPHERAL LYMPHOCYTES, Metabolic Activation: RAT, LIVER, S-9, AROCLOR 1254)?
Answer: inactive; negative

Question: And the mutagenic call (End Point: IN VIVO MICRONUCLEUS, Test System: BONE MARROW POLYCHROMATIC ERYTHROCYTES, Species: MOUSE, Strain/Sex: NMRI/MALE, FEMALE, Route: SUBCUTANEOUS INJECTION)?
Answer: inactive; negative

Question: And the mutagenic call (Test System: AMES SALMONELLA TYPHIMURIUM, Strain/Indicator: TA98, Metabolic Activation: NONE, Method: PREINCUBATION)?
Answer: inactive; negative

Question: What about the mutagenic call [1] of the same compound?
Answer: inactive; negative

Question: What about the mutagenic call (Test System: AMES SALMONELLA TYPHIMURIUM, Strain/Indicator: TA98, Metabolic Activation: RAT, LIVER, S-9, AROCLOR 1254, Method: PREINCUBATION) of the same compound?
Answer: inactive; negative

Question: What about the mutagenic call [2] of the same compound?
Answer: inactive; negative

Question: And the mutagenic call [11]?
Answer: inactive; negative

Question: And the mutagenic call [3]?
Answer: inactive; negative

Question: And the mutagenic call [12]?
Answer: inactive; negative

Question: And the mutagenic call [4]?
Answer: inactive; negative

Question: And the mutagenic call (Test System: AMES SALMONELLA TYPHIMURIUM, Strain/Indicator: TA1535, Metabolic Activation: NONE, Method: PREINCUBATION)?
Answer: inactive; negative

Question: What about the mutagenic call [5] of the same compound?
Answer: inactive; negative

Question: And the mutagenic call (Test System: AMES SALMONELLA TYPHIMURIUM, Strain/Indicator: TA1535, Metabolic Activation: RAT, LIVER, S-9, AROCLOR 1254, Method: PREINCUBATION)?
Answer: inactive; negative

Question: What about the mutagenic call [6] of the same compound?
Answer: inactive; negative

Question: And the mutagenic call (Test System: AMES SALMONELLA TYPHIMURIUM, Strain/Indicator: TA1537, Metabolic Activation: NONE, Method: PREINCUBATION)?
Answer: inactive; negative

Question: What about the mutagenic call [7] of the same compound?
Answer: inactive; negative

Question: And the mutagenic call (Test System: AMES SALMONELLA TYPHIMURIUM, Strain/Indicator: TA1537, Metabolic Activation: RAT, LIVER, S-9, AROCLOR 1254, Method: PREINCUBATION)?
Answer: inactive; negative

Question: What about the mutagenic call [8] of the same compound?
Answer: inactive; negative

Question: And the mutagenic call (Test System: AMES SALMONELLA TYPHIMURIUM, Strain/Indicator: TA1538, Metabolic Activation: NONE, Method: PREINCUBATION)?
Answer: inactive; negative

Question: And the mutagenic call [9]?
Answer: inactive; negative

Question: And the mutagenic call (Test System: AMES SALMONELLA TYPHIMURIUM, Strain/Indicator: TA1538, Metabolic Activation: RAT, LIVER, S-9, AROCLOR 1254, Method: PREINCUBATION)?
Answer: inactive; negative

Question: And the mutagenic call [10]?
Answer: inactive; negative

Question: And the mutagenic call (Test System: CHINESE HAMSTER V-79, Strain/Indicator: V-79 (HGPRT)/6-THIOGUANINE, Metabolic Activation: NONE)?
Answer: inactive; negative

Question: What about the mutagenic call (Test System: CHINESE HAMSTER V-79, Strain/Indicator: V-79 (HGPRT)/6-THIOGUANINE, Metabolic Activation: RAT, LIVER, S-9, AROCLOR 1254) of the same compound?
Answer: inactive; negative

Question: What does the source list for `O=C(/C=C/c1ccc(F)cc1)c1ccccc1`?
Answer: mutagenic call [1]: inactive; negative; mutagenic call [2]: inactive; negative; mutagenic call [3]: inactive; negative; mutagenic call [4]: inactive; negative
